{
  "source": "patent US20090175924A1",
  "about": "“COATED STENT” (BIONERIS AB, priority 2002, published 2009)",
  "key": {"mice": {"tested_on": "mice", "assay_type": "in vivo", "settings": "intravenous", "procedure": "A method described by S. Irwin (Psychopharmacologica, 1968, 13, 222) was used to detect general physiological, behavioural and toxic effects of a series of compounds. The tested compounds were administered intra veneously to mice (3 animals per compound and dose) and the behavioural modification and neurotoxicity symptoms such as mortality, sedation, excitation, aggressiveness, straub, writhes, convulsions, tremor, exophtalamos, salivation, lacrimation, piloerection, defecation, fear, traction, reactivity to touch, loss of righting reflex, sleep, motor incoordination, muscle tone, stereotypies, catalepsy, grasping, ptosis, difficulty in respiration, corneal reflex, analgesia and gait were recorded compared to a control group, Furthermore, rectal temperature and pupil diameter were recorded."}, "Wistar rats": {"tested_on": "Wistar rats", "assay": "Neointima formation after balloon catheter injury of the carotid artery in rats", "assay_type": "in vivo, rat", "settings": "for elasticity of the vessel walls (microscopic investigation): compared to the control group; for Neointima formation / Reduction (%) of neointima formation: rat carotid, 14 days post-operatively, 1 mg/kg/hr; for Neointima formation: subcutaneous osmotic minipumps; for Reduction (%) of neointima formation: versus saline control, osmotic minipumps", "procedure": "The effects on neointima formation was assessed after inducing vessel injury in rats with a balloon catheter. Neointima formation is an important part in the process of restenosis. Adult mate Wistar rats (250-260 g) were housed under standard conditions and were fed with commercial rat chow and water ad libitum. During the experiment D-myo-inositol-1,2,6-trisphosphate (IP3) was administered via subcutaneously operated osmotic minipumps with a dose level of 1 mg/kg/hr. A control group received saline solution by osmotic minipumps. The animals were anaesthetised with an intraperitoneal injection of ketamine, 100 mg/kg, (MTC Pharmaceuticals, Cambridge, Ontario, Canada) and xylazine, 10 mg/kg (Bayer Inc., Etobicoke, Ontario, Canada). Using a dissecting microscope, the left carotid artery was exposed on the ventral side of the neck via a midline incision. The bifurcation of the carotid artery was located and two ligatures were placed around the external carotid artery, which was then tied off with the distal ligature. After temporarily occluding the internal carotid artery with a vascular clamp, a small incision was made between the two ligatures placed around the external carotid artery to introduce the endothelial denudation device, an inflated […] Fogarty embolectomy catheter (Baxter Healthcare, Buckinghamshire, UK). Each animal was de-endothelialised by three passages of the catheter and the carotid artery was tied off proximal to the incision hole. The clamp was removed and the pulse of the carotid artery was rechecked. The skin incision was closed with a single suture. 14 days post-operatively, the animals were sedated. An abdominal incision was made to access the abdominal aorta for insertion of a cannula connected to a perfusion apparatus. The animals where killed by an overdose of anaestetic and then perfused with heparinised phosphate buffered saline (pH 7.4) at a rate of 100 ml/min per kg body weight and a pressure of 120 mm Hg. After replacement of saline, 4% paraformaldehyde in isotonic saline was introduced at the same flow rate. After fixation in situ, the carotids were dissected free. Three mid-carotid segments, approximately 10 mm long were rinsed and placed in 4% parafomaldehyde for another 16 hours before embedding and freezing in Tissue-Tek OCT media (Miles Inc., Elkhart, Ind., USA). Frozen sections were stained with Movat's pentachrome and immunohistochemistry was performed using antibodies in order to examine the process of restenosis by measurement of the neointima formation.\nIn a procedure similar to the one described in Example 3, D-3,4,5-tri-O-(phenylcarbamoyl)myo-inositol-1,2,6-trisphosphate (PP 11-201) was added with the result shown below: […]"}, "[1]": {"tested_on": "Human pulmonary artery smooth muscle cells (HPASMCs)", "assay": "FGF2-stimulated proliferation of smooth muscle cells (3H-thymidine incorporation)", "assay_type": "cell-based", "settings": "1 nM FGF2, 24 hours", "procedure": "Vascular smooth muscle cell proliferation contributes to restenosis after coronary angioplasty. Human pulmonary artery smooth muscle cells (HPASMCs) were maintained in Medium 231 supplemented with Smooth muscle Growth Supplement. The cells, medium and supplement were obtained from Caascade Biologics Inc., Portland, Oreg., USA.\nThe cells were grown as monolayer culture in 100-mm diameter plastic tissue culture dishes (Nunc, Roskilde, Denmark) with 10 ml medium in 37° C. in a humidified atmosphere of 95% air and 5% CO2 and subcultured at 4- to 6-day intervals. For measurement of cell growth, cells were seeded at density 5.0*10^3/well in 96 well dishes in DMEM+0.2% FBS for 3 days. Culture medium was then removed and cells were seeded in DMEM+0.2% FBS with 1 nM of basic fibroblast growth factor (FGF2). The addition of FGF2 induces cell proliferation of the HPASMCs. The FGF2 used was a recombinant human substance from Boehringer Mannheim Biochemica, Espoo, Finland. Various concentrations of D-myo-inositol-1,2,6-trisphosphate (IP3) were added and the number of parallel wells in each treatment was four. The proliferation of cells was analysed after 24 hours of incubation by labelling each well with 0.2 μCi of ^3H-thymidine for two hours. After that the cells were trypsinated and harvested on a filter. A Melt-on scintillator (Meltilex™ A; Wallac, Turku, Finland) was allowed to melt on the filter. The radioactivity of the sheets was counted on a liquid scintillator counter (1450 Microbeta Wallac, Turku, Finland).\nStimulation of proliferation was inhibited by the addition of IP3 with the following result:\nIn a procedure similar to the one described in Example 1, D-3,4,5-tri-O-(phenylcarbamoyl) myo-inositol-1,2,6-trisphosphate (PP 11-201) was added with the result shown below: […]"}},
  "data": [
    {"compound": "CCC(=O)OC1C(OC(=O)CC)C(OP(=O)(O)O)C(OP(=O)(O)O)C(OP(=O)(O)O)C1OC(=O)CC", "note": "[D-3,4,5-tri-O-propanoyl-myo-inositol-1,2,6-trisphosphate]", "values": [
      {"measurement": "Dose where effects are observed", "setting": "mice", "value": 256, "unit": "mg/kg"}
    ]},
    {"compound": "1,2-O-ethylene-β-D-fructopyranoside-2,3,4-trisphosphate", "values": [
      {"measurement": "Dose where effects are observed", "setting": "mice", "value": ">512", "unit": "mg/kg"}
    ]},
    {"compound": "CCCCOC[C@H]1O[C@H](OC)[C@H](OP(=O)(O)O)[C@@H](OP(=O)(O)O)[C@@H]1OP(=O)(O)O", "note": "[methyl-6-O-butyl-α-D-glycopyranoside-2,3,4-trisphosphate]", "values": [
      {"measurement": "Dose where effects are observed", "setting": "mice", "value": 256, "unit": "mg/kg"}
    ]},
    {"compound": "O=P(O)(O)O[C@@H]1[C@H](OP(=O)(O)O)[C@H](O)[C@@H](O)[C@H](O)[C@H]1OP(=O)(O)O", "note": "[IP3, D-myo-inositol-1,2,6-trisphosphate]", "values": [
      {"measurement": "elasticity of the vessel walls (microscopic investigation)", "setting": "Wistar rats", "value": "improved"},
      {"measurement": "Neointima formation", "setting": "Wistar rats", "value": 0.48, "unit": "mm^2"},
      {"measurement": "Reduction (%) of neointima formation", "setting": "Wistar rats", "value": 57, "unit": "%"},
      {"measurement": "Dose where effects are observed", "setting": "mice", "value": ">512", "unit": "mg/kg"},
      {"measurement": "inhibition (%) of FGF2-stimulated proliferation", "setting": "[1]; 1 μM", "value": 61, "unit": "%"},
      {"measurement": "inhibition (%) of FGF2-stimulated proliferation", "setting": "[1]; 10 μM", "value": 44, "unit": "%"},
      {"measurement": "inhibition (%) of FGF2-stimulated proliferation", "setting": "[1]; 100 μM", "value": 68, "unit": "%"}
    ]},
    {"compound": "CCCCC(=O)OC1C(OC(=O)CCCC)C(OP(=O)(O)O)C(OP(=O)(O)O)C(OP(=O)(O)O)C1OC(=O)CCCC", "note": "[D-3,4,5-tri-O-pentanoyl-myo-inositol-1,2,6-trisphosphate]", "values": [
      {"measurement": "Dose where effects are observed", "setting": "mice", "value": 128, "unit": "mg/kg"}
    ]},
    {"compound": "O=P(O)(O)OC1CN(CCc2ccccc2)CC(OP(=O)(O)O)C1OP(=O)(O)O", "note": "(centres unmarked) [1,5-dideoxy-1,5-imino-N-(2-phenylethyl)arabinitol-2,3,4-trisphosphate]", "values": [
      {"measurement": "Dose where effects are observed", "setting": "mice", "value": ">512", "unit": "mg/kg"}
    ]},
    {"compound": "O=C(O)CP(=O)(O)O[C@@H]1[C@H](OP(=O)(O)CC(=O)O)[C@H](O)[C@@H](O)[C@H](O)[C@H]1OP(=O)(O)CC(=O)O", "note": "[D-myo-inositol-1,2,6-tris(carboxymetylphosphonate)]", "values": [
      {"measurement": "Dose where effects are observed", "setting": "mice", "value": ">512", "unit": "mg/kg"}
    ]},
    {"compound": "O=C(Nc1ccccc1)O[C@@H]1[C@@H](OC(=O)Nc2ccccc2)[C@@H](OP(=O)(O)O)[C@@H](OP(=O)(O)O)[C@H](OP(=O)(O)O)[C@H]1OC(=O)Nc1ccccc1", "note": "[PP 11-201, D-3,4,5-tri-O-(phenylcarbamoyl)myo-inositol-1,2,6-trisphosphate]", "values": [
      {"measurement": "elasticity of the vessel walls (microscopic investigation)", "setting": "Wistar rats", "value": "improved"},
      {"measurement": "Neointima formation", "setting": "Wistar rats", "value": 0.43, "unit": "mm^2"},
      {"measurement": "Reduction (%) of neointima formation", "setting": "Wistar rats", "value": 62, "unit": "%"},
      {"measurement": "inhibition (%) of FGF2-stimulated proliferation", "setting": "[1]; 0.1 μM", "value": 49, "unit": "%"},
      {"measurement": "inhibition (%) of FGF2-stimulated proliferation", "setting": "[1]; 1 μM", "value": 61, "unit": "%"},
      {"measurement": "inhibition (%) of FGF2-stimulated proliferation", "setting": "[1]; 10 μM", "value": 70, "unit": "%"}
    ]},
    {"compound": "methyl-6-O-butyl-α-D-mannopyranoside-2,3,4-trisphosphate", "values": [
      {"measurement": "Dose where effects are observed", "setting": "mice", "value": ">512", "unit": "mg/kg"}
    ]}
  ]
}
